Data published in PubChem BioAssay AID330 (DTP/NCI, 2004).
Several values for one entry are separate records, joined by “and”; a condition that tells them apart may be missing. Equal values may be shown once. Inconclusive results and toxic doses are left out. Rule for the calls: active = survival T/C of 150% or more; inactive = T/C below 125% in these data.

System: P388 leukemia ip, CD2F1 mice, survival T/C
Experiment: NCI In Vivo Anticancer Drug Screen. Data for tumor model P388 Leukemia (intraperitoneal) in CD2F1 (CDF1) mice
Conditions: endpoint: median survival time, higher = longer survival
Method in brief: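 Mice carrying the transplanted tumor received test compound or vehicle. Survival was recorded in each group, and the value is the treated-group measurement divided by that of the vehicle-treated control group.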

Measured: T/C

C[Si](C)(C)CSCCO
inactive: dose: 50.0 mg/kg/injection, schedule: Q01DX005 (ip), vehicle: saline with Tween-80 106 % of control | dose: 100.0 mg/kg/injection, schedule: Q01DX005 (ip), vehicle: saline with Tween-80 104 % of control | dose: 200.0 mg/kg/injection, schedule: Q01DX005 (ip), vehicle: saline with Tween-80 100 % of control

Cc1ccc2c(ccc(/C=C/c3ccc(O)c4ncccc34)[n+]2C)c1
inactive: dose: 12.5 mg/kg/injection, schedule: Q01DX009 (ip), vehicle: saline with Tween-80 116 % of control | dose: 25.0 mg/kg/injection, schedule: Q01DX009 (ip), vehicle: saline with Tween-80 105 % of control

C(=N\Nc1nc2ccccc2s1)/c1cccs1
inactive: dose: 50.0 mg/kg/injection, schedule: Q01DX009 (ip), vehicle: saline 100 % of control | dose: 100.0 mg/kg/injection, schedule: Q01DX009 (ip), vehicle: saline 87 % of control | dose: 200.0 mg/kg/injection, schedule: Q01DX009 (ip), vehicle: saline 106 % of control

O=c1[nH]cnc2c1cnn2CN1CCOCC1
inactive: dose: 25.0 mg/kg/injection, schedule: Q01DX005 (ip), vehicle: Klucel (hydroxypropylcellulose) (HPC) 106 % of control | dose: 50.0 mg/kg/injection, schedule: Q01DX005 (ip), vehicle: Klucel (hydroxypropylcellulose) (HPC) 117 % of control and 90 % of control | dose: 100.0 mg/kg/injection, schedule: Q01DX005 (ip), vehicle: Klucel (hydroxypropylcellulose) (HPC) 120 % of control

CC(=N\O)/C(C)=N/O.CC(=N\O)/C(C)=N/O.CCCC1CC[N-]CC1.CCCC1CC[N-]CC1.CCCC1CC[N-]CC1.CCCC1CC[N-]CC1.[Cl-].[Cl-].[Cl][Rh][Cl].[Rh+3]
inactive: dose: 2.78 mg/kg/injection, schedule: Q01DX009 (ip), vehicle: saline with Tween-80 120 % of control

CN(C)c1ccc(/C(O)=C\c2ncnc3ccccc23)cc1
inactive: dose: 60.0 mg/kg/injection, schedule: Q01DX005 (ip), vehicle: saline with Tween-80 94 % of control | dose: 120.0 mg/kg/injection, schedule: Q01DX005 (ip), vehicle: saline with Tween-80 94 % of control | dose: 240.0 mg/kg/injection, schedule: Q01DX005 (ip), vehicle: saline with Tween-80 93 % of control

N#[N+]c1c(C(=O)O)[nH]c(=O)[nH]c1=O
inactive: dose: 16.0 mg/kg/injection, schedule: Q01DX009 (ip), vehicle: saline sonified 109 % of control | dose: 32.0 mg/kg/injection, schedule: Q01DX009 (ip), vehicle: saline sonified 104 % of control | dose: 64.0 mg/kg/injection, schedule: Q01DX009 (ip), vehicle: saline sonified 100 % of control | dose: 125.0 mg/kg/injection, schedule: Q01DX009 (ip), vehicle: saline sonified 104 % of control | dose: 250.0 mg/kg/injection, schedule: Q01DX009 (ip), vehicle: saline sonified 109 % of control | dose: 500.0 mg/kg/injection, schedule: Q01DX009 (ip), vehicle: saline sonified 104 % of control

CN1CCC(COC(=O)CC(C)(C)C)C1 (stereo unspecified)
inactive: dose: 3.13 mg/kg/injection, schedule: Q01DX009 (ip), vehicle: water 105 % of control | dose: 6.25 mg/kg/injection, schedule: Q01DX009 (ip), vehicle: water 100 % of control | dose: 12.5 mg/kg/injection, schedule: Q01DX009 (ip), vehicle: water 99 % of control | dose: 25.0 mg/kg/injection, schedule: Q01DX009 (ip), vehicle: water 101 % of control | dose: 50.0 mg/kg/injection, schedule: Q01DX009 (ip), vehicle: water 105 % of control | dose: 100.0 mg/kg/injection, schedule: Q01DX009 (ip), vehicle: water 101 % of control

CC(C)=C(Nc1ccccc1)NC(C)C
inactive: dose: 6.25 mg/kg/injection, schedule: Q01DX005 (ip), vehicle: saline 103 % of control | dose: 12.5 mg/kg/injection, schedule: Q01DX005 (ip), vehicle: saline 103 % of control and 104 % of control | dose: 25.0 mg/kg/injection, schedule: Q01DX005 (ip), vehicle: saline 106 % of control and 120 % of control | dose: 50.0 mg/kg/injection, schedule: Q01DX005 (ip), vehicle: saline 118 % of control

COc1cc(C2N3Cc4ccccc4CN2c2ccccc23)cc(OC)c1OC
inactive: dose: 100.0 mg/kg/injection, schedule: Q01DX001 (ip), vehicle: Klucel (hydroxypropylcellulose) (HPC) 101 % of control | dose: 200.0 mg/kg/injection, schedule: Q01DX001 (ip), vehicle: Klucel (hydroxypropylcellulose) (HPC) 99 % of control | dose: 400.0 mg/kg/injection, schedule: Q01DX001 (ip), vehicle: Klucel (hydroxypropylcellulose) (HPC) 102 % of control

NC(=O)C(O)C1OC(COCc2ccccc2)C(OCc2ccccc2)C1OCc1ccccc1 (stereo unspecified)
inactive: dose: 12.5 mg/kg/injection, schedule: Q01DX009 (ip), vehicle: distilled water + Tween-80 90 % of control and 104 % of control | dose: 25.0 mg/kg/injection, schedule: Q01DX009 (ip), vehicle: distilled water + Tween-80 92 % of control and 95 % of control | dose: 50.0 mg/kg/injection, schedule: Q01DX009 (ip), vehicle: distilled water + Tween-80 106 % of control and 100 % of control | dose: 100.0 mg/kg/injection, schedule: Q01DX009 (ip), vehicle: distilled water + Tween-80 100 % of control and 89 % of control | dose: 200.0 mg/kg/injection, schedule: Q01DX009 (ip), vehicle: distilled water + Tween-80 104 % of control and 97 % of control

COc1ccc(/C=C2/OC(=O)C(C(C)=O)=C2O)cc1
inactive: dose: 50.0 mg/kg/injection, schedule: Q01DX009 (ip), vehicle: Klucel (hydroxypropylcellulose) (HPC) 115 % of control | dose: 100.0 mg/kg/injection, schedule: Q01DX009 (ip), vehicle: Klucel (hydroxypropylcellulose) (HPC) 100 % of control
